Data taken from US12233071B2, “Medicament for treating cough” (NIPPON CHEMIPHAR CO., LTD, priority 2018, dated 2025).
Counter-ions that a name gives are not always drawn. Like-named read-outs stand apart in the source and are kept apart here.

Tests used:
human P2X4 = biological target: T1, human P2X4 (Homo sapiens, UniProt Q99571); assay: P2X4 receptor antagonistic action: ATP-induced intracellular calcium response (Fura-2AM) in P2X4 receptor-expressing 1321N1 cells; format: cell-based
T1 sequence (Q99571 1-388): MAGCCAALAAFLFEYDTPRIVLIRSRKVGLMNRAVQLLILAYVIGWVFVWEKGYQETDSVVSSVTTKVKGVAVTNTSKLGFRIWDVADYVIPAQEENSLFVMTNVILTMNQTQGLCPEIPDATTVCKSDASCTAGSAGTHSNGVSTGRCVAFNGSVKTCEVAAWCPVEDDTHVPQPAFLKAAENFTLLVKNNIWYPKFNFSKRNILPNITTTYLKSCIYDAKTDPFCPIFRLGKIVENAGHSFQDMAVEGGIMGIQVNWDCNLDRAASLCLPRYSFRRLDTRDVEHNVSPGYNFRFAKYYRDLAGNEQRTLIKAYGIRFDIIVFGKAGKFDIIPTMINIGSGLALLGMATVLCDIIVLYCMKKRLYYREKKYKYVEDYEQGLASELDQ
Experimental: An ATP receptor (human P2X4) was introduced in 1321N1 cells, which were then used as a system in which P2X4 receptor was expressed stably. The P2X4 receptor-expressing cells were seeded on a 96-well plate, were cultured for 24 h under conditions at 37° C. and 5% C02, and were then used for calcium measurement. Fura-2AM, which is a calcium fluorescence indicator, was dissolved in an extracellular solution for calcium imaging and applied to the seeded cells. Then, the cells were allowed to stand at room temperature for 45 min. In this way, the Fura-2AM was taken up in the cells. A micro plate reader EnVision (PerkinElmer) was used for the measurement. Light emitted from a xenon lamp was made to pass through a 340-nm or 380-nm filter, and F340 or F380, which is 510-nm fluorescence emitted when the cells were irradiated, were observed. Then, a change in the ratio value F340/F380 was an index for the intracellular calcium change. The measurement was carried out by adding ATP at the final concentration of 1 μM to each well and by recording, over time, the ATP-induced intracellular calcium response. The inhibitory activity of each test substance was measured by conducting 15-min pretreatment with each test substance before ATP application, and was calculated while compared to the case of the absence of the test substance.

[1] = system: citric acid (0.5 M)-induced cough; assay: Citric acid-induced cough reflux in pretreatment guinea pigs, oral administration; format: in vivo, Hartly strain guinea pigs; conditions: for number of coughs, pre versus post administration: pretreatment guinea pigs
Excerpt: Cough reflux is induced by inhalation of (in the case of mice, 0.1 M or 0.25 M and in the case of guinea pigs, 0.25 M or 0.5 M) citric acid by mice or guinea pigs under non-anesthesia conditions. The citric acid is made aerosol by using an ultrasonic nebulizer (NE-U17: OMRON Corporation), and is inhaled while the air is supplied with an artificial respirator (SN-480-7: Shinano Seisakusho). The citric acid aerosol has an average particle size of from 1 to 8 μm, and the artificial respirator is used to supply the air at a one-time ventilation volume of 6 mL, a frequency of 30 times per min, and an inhalation period of 3 min.
The respiration and the cough reflux are measured in accordance with the body-plethysmograph method. The plethysmograph used includes: a plastic-made, cylindrical cylinder part in which the trunk of each mouse or guinea pig is housed; and a cap part that covers the head portion (any plastic-made cylinder is allowed as long as each experimental animal can be put in; in the case of the mouse, for instance, the part with a diameter of 4 cm and a length of 7 cm was used). An exhaust hole is created at an upper cylinder portion so as to be able to connect, via a silicon tube, to a respiratory flow meter (TP-602T: NIHON KOHDEN CORPORATION). To tightly seal the inside of the cylinder, a rubber or celluloid collar is attached to the neck of each animal, and the cap covering the whole head is used to fix them. The head-attached cap part has an exhaust port and an inhalation port created for inhalation of a cough-inducing substance. In addition, a screw-type lid is attached to a tail portion of the cylinder so as to move in or out each experimental animal. Each mouse is put in the cylinder, allowed to play for at least 30 min, adapted to an experimental environment, and then subjected to the experiment. The respiration is recorded in a PC (IdeaPad 300: Lenovo) for measurement by measuring, as a change in volume of the cylinder, the chest movement of each experimental animal in the cylinder by using a PowerLab (ML826 PowerLab 2/26: AD Instruments) via a respiratory flow meter. When a cough is induced, the chest of the experimental animal is moved vigorously, which causes an instantaneous large volume change in the cylinder. This change is recorded using the respiratory flow meter. This frequency is recorded to measure the number of coughs. The data is analyzed by LabChart version 8 (ADInstruments). In addition, immediately before inhalation of citric acid, the respiratory frequency per 15 sec is measured.
In this way, the effects were investigated.
At that time, Hartly strain guinea pigs were used as the guinea pigs, and 0.5 M citric acid was used as the citric acid.
In this way, the effects were investigated. Here, 0.5 M citric acid was used as the pretreated citric acid.

[2] = system: citric acid-induced cough; conditions: cited from earlier work
[3] = system: citric acid (0.25 M)-induced cough; assay: Citric acid-induced cough reflux in pretreatment mice, oral administration; format: in vivo, ICR strain mice; conditions: oral 10 mg/kg, 0.25 M citric acid 1 h after administration
[4] = Table 131 (Example 1), human P2X4-expressing 1321N1 cells, ATP 1 μM, Fura-2AM calcium response, read-out: IC50

## O=C1CC(=O)N(c2ccc(-n3nnnc3Cc3ccccc3O)nc2)c2ccc3ccccc3c2N1 [Compound H11, 5-[6-[5-(2-hydroxybenzyl)-1H-tetrazol-1-yl]pyridin-3-yl]-1H-naphtho[1,2-b][1,4]diazepin-2,4(3H,5H)-dione]
Human P2X4; Table 134 (Example 14), same protocol as Example 1, read-out: Inhibitory action IC50
  IC50: 77 nM

## 5-[4-[(2-(3-fluorophenyl)ethyl)-1H-imidazol-1-yl]phenyl]-1H-naphtho[1,2-b][1,4]diazepin-2,4(3H,5H)-dione hydrochloride [Compound H31]
Human P2X4; Table 135 (Example 14), same protocol as Example 1, read-out: Inhibitory action IC50
  IC50: 51 nM

## O=C1CC(=O)N(c2ccc(NC(=O)c3ccccc3C(F)(F)F)cc2)c2ccc3ccccc3c2N1 [compound C, 5-[4-[2-(trifluoromethyl)benzoyl]aminophenyl]-1H-naphtho[1,2-b][1,4]diazepin-2,4(3H,5H)-dione]
[1]; as stated in Example 15, oral 58.8 mg/kg
  cough response increased due to airway inflammation: inhibited completely
[1]; oral 58.8 mg/kg 1 h before 0.5 M citric acid stimulation
  number of coughs, pre versus post administration: significantly decreased

## O=C1CC(=O)N(c2ccc(F)c(-c3nnn[nH]3)c2)c2ccc3ccccc3c2N1 [Compound A23, 5-[4-fluoro-3-(1H-tetrazol-5-yl)phenyl]-1H-naphtho[1,2-b][1,4]diazepin-2,4(3H,5H)-dione sodium salt]
Human P2X4; [4]
  IC50: 490 nM

## Nc1ncnc2c1ncn2[C@@H]1O[C@H](COP(=O)(O)OP(=O)(O)OP(=O)(O)O)[C@@H](O)[C@H]1O [ATP, adenosine triphosphate]
[2]; guinea pigs, Non Patent Literature 1
  effect of ATP on citric acid-induced cough: elicited a concentration-dependent and significant increase

## O=c1nc(-c2cccc(-c3nnn[nH]3)c2)c2ccc3ccccc3c2[nH]1 [Compound D2, 4-[3-(1H-tetrazol-5-yl)phenyl]-1H-benzo[h]quinazolin-2-one sodium salt]
Human P2X4; [4]
  IC50: 330 nM

## O=c1[nH]c2c3ccccc3ccc2n(-c2cccc(-c3nnn[nH]3)c2)c1=O [Compound C2, 4-[3-(1H-tetrazol-5-yl)phenyl]-1,4-dihydrobenzo[f]quinoxalin-2,3-dione sodium salt]
Human P2X4; [4]
  IC50: 570 nM

## TNP-ATP
[2]; Non Patent Literature 2
  number of coughs induced by citric acid and increased depending on the concentration of ATP: decreased
[2]; guinea pigs, inhalation pretreatment / aerosol, Non Patent Literature 1
  inhibition of the ATP-elicited increase of citric acid-induced cough: completely inhibited

## COc1c(F)cccc1CCc1nccn1-c1ccc(N2C(=O)CC(=O)Nc3c2ccc2ccccc32)cc1 [Compound H83, 5-[4-[(2-(3-fluoro-2-methoxyphenyl)ethyl)-1H-imidazol-1-yl]phenyl]-1H-naphtho[1,2-b][1,4]diazepin-2,4(3H,5H)-dione hydrochloride]
Human P2X4; read-out: Inhibitory action IC50
  IC50: 87 nM

## COc1ccc2c3c1O[C@H]1[C@@H](O)CC[C@H]4[C@@H](C2)N(C)CC[C@@]341 [dihydrocodeine, reference compound]
[3]
  cough inhibition rate, compound A versus the same dose of dihydrocodeine: comparable

## CN(C)c1ncccc1C(=O)Nc1ccc(C2=NCC(=O)Nc3c2ccc2ccccc32)cc1.Cl.Cl [compound D, 2-(dimethylamino)-N-[4-(2-oxo-2,3-dihydro-1H-naphtho[1,2-e][1,4]diazepin-5-yl)phenyl]nicotinamide dihydrochloride]
[1]; as stated in Example 15, oral 30 mg/kg
  cough response increased due to airway inflammation: completely inhibit
[1]; oral 30 mg/kg 1 h before 0.5 M citric acid stimulation
  number of coughs, pre versus post administration: significantly decreased

## O=C1CN=C(c2cccc(-c3nnn[nH]3)c2)c2ccc3ccccc3c2N1 [Compound A21, 5-[3-(1H-tetrazol-5-yl)phenyl]-1,3-dihydro-2H-naphtho[1,2-e][1,4]diazepin-2-one sodium salt]
Human P2X4
  IC50: 910 nM
